35 compounds from patent USRE48711E1, “Apoptosis signal-regulating kinase inhibitors” (Gilead Sciences, Inc., priority 2009, dated 2021) can be followed below.

Chain of ASK1 (Apoptosis Signal-Regulating Kinase 1) (Q99683 649-946): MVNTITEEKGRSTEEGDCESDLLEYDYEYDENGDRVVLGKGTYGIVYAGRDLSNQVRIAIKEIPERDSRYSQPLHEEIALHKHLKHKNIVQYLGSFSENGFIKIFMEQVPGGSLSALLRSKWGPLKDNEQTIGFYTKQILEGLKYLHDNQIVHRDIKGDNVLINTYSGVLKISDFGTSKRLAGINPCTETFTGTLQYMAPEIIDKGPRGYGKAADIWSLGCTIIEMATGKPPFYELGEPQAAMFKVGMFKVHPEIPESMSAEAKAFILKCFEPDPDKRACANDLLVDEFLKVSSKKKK

The experiment addresses ASK1 (Apoptosis Signal-Regulating Kinase 1) (Homo sapiens (Human), UniProt Q99683). In words: ASK1 (Apoptosis Signal-Regulating Kinase 1) TR-FRET Kinase Assay (Biochemical IC50). To be noted: TR-FRET, biotin-MBP substrate, 20 min pre-incubation, ATP added as 300 μM solution.
Procedure: The ability of compounds to inhibit ASK1 kinase activity was determined using a time resolved fluorescence resonance energy transfer [TR-FRET] assay utilizing biotinylated myelin basic protein [biotin-MBP] as the protein substrate. […] The enzyme was allowed to pre-incubate with compound for 20 minutes prior to initiating the kinase reaction with the addition of 5 μL/well 300 μM ATP in buffer (50 mM MOPS, pH 7.0, 5 mM Mg-acetate, 1 mM DTT, 5% DMSO) using the Decrac Fluidics Equator. The kinase reactions were allowed to proceed for 20 minutes at ambient temperature and were subsequently stopped with the addition of 5 μL/well 25 mM EDTA using the Deerac Fluidics Equator. […] The TR-FRET signal was then read on a Perkin. Elmer Envision plate reader after incubating the plates at ambient temperature for 2 hours.
One may read the IC50 as the midpoint of a concentration-inhibition curve. A higher IC50 goes with lower potency. `NS(=O)(=O)c1ccc(-c2ccnc(C(=O)Nc3cccc(-c4nncn4C4CC4)c3)c2)cc1` [Example 97, N-(3-(4-cyclopropyl-4H-1,2,4-triazol-3-yl)phenyl)-4-(4-sulfamoylphenyl)picolinamide]: the IC50 was 81 nM.

`CC(C)CSc1ccc(-c2ccnc(C(=O)Nc3cccc(-c4nncn4C4CC4)c3)c2)cn1` [Example 132, N-(3-(4-cyclopropyl-4H-1,2,4-triazol-3-yl)phenyl)-6-(isobutylthio)-3,4′-bipyridine-2′-carboxamide] came in with an IC50 of 150 nM.

As to `CCC(CC)n1cnnc1-c1cccc(NC(=O)c2cc(-c3ccc(C4CC4)nc3)ccn2)c1` [Example 231, 6-cyclopropyl-N-(3-(4-(pentan-3-yl)-4H-1,2,4-triazol-3-yl)phenyl)-3,4′-bipyridine-2′-carboxamide], half-maximal inhibition (IC50) was put at 1420 nM.

In turn, `O=C(Nc1cccc(-c2nncn2C2CC2)n1)c1cccc(-c2cnc3cccnc3c2)c1` [Example 191, N-(6-(4-cyclopropyl-4H-1,2,4-triazol-3-yl)pyridin-2-yl)-3-(1,5-naphthyridin-3-yl)benzamide] registered an IC50 of 18 nM.

On to `CC(c1ccccc1)n1cnnc1-c1cccc(NC(=O)c2cc(-n3cnc(C4CC4)c3)ccn2)c1` (centres unmarked) [Example 186, 4-(4-cyclopropyl-1H-imidazol-1-yl)-N-(3-(4-(1-phenylethyl)-4H-1,2,4-triazol-3-yl)phenyl)picolinamide], for which half-maximal inhibition (IC50) was put at 30 nM.

For `Cc1noc(-c2ccnc(C(=O)Nc3cccc(-c4nncn4C4CC4)c3)c2)n1` [Example 253, N-(3-(4-cyclopropyl-4H-1,2,4-triazol-3-yl)phenyl)-4-(3-methyl-1,2,4-oxadiazol-5-yl)picolinamide], the midpoint of inhibition, the IC50, lay at 3490 nM.

`COCCNc1ccc(-c2ccnc(C(=O)Nc3cccc(-c4nncn4C4CC4)c3)c2)cn1` [Example 136, N-(3-(4-cyclopropyl-4H-1,2,4-triazol-3-yl)phenyl)-6-(2-methoxyethylamino)-3,4′-bipyridine-2′-carboxamide] gave an IC50 of 7 nM.

`O=C(Nc1cccc(-c2nncn2C2CC2)c1)c1cc(-c2ccc(O)nc2)ccn1` [Example 31, N-(3-(4-cyclopropyl-4H-1,2,4-triazol-3-yl)phenyl)-6-hydroxy-3,4′-bipyridine-2′-carboxamide]: half-maximal inhibition (IC50) required 63 nM.

`C[C@H](CO)n1cnnc1-c1cccc(NC(=O)c2cc(-c3cccnc3)ccn2)c1` [Example 19, (R)-N-(3-(4-(1-hydroxypropan-2-yl)-4H-1,2,4-triazol-3-yl)phenyl)-3,4′-bipyridine-2′-carboxamide]: the IC50 was 9 nM. Compared with the last compound, the IC50 is about 7-fold lower.

The compound `COc1ccc(-n2cnc(C3CC3)c2)cc1C(=O)Nc1cccc(-c2nncn2C2CC2)c1` [Example 272, 5-(4-cyclopropyl-1H-imidazol-1-yl)-N-(3-(4-cyclopropyl-4H-1,2,4-triazol-3-yl)phenyl)-2-methoxybenzamide] had an IC50 of 11 nM.

For the compound `O=C(Nc1cccc(-c2nncn2C2CC2)c1)c1cc(-c2cnc3ccccn23)ccn1` [Example 69, N-(3-(4-cyclopropyl-4H-1,2,4-triazol-3-yl)phenyl)-4-(imidazo[1,2-a]pyridin-3-yl)picolinamide], the half-inhibitory concentration (IC50) came to 11 nM.

As for `Cc1cn(-c2ccnc(C(=O)Nc3cccc(-c4nncn4C4CC4)n3)c2)cn1` [Example 159, N-(6-(4-cyclopropyl-4H-1,2,4-triazol-3-yl)pyridin-2-yl)-4-(4-methyl-1H-imidazol-1-yl)picolinamide], it took 3 nM to reach half-maximal inhibition (IC50).

`COC(=O)Nc1ccc(-c2ccnc(C(=O)Nc3cccc(-c4nncn4C4CC4)c3)c2)cn1` [Example 23, methyl 2′-(3-(4-cyclopropyl-4H-1,2,4-triazol-3-yl)phenylcarbamoyl)-3,4′-bipyridin-6-ylcarbamate] registered an IC50 of 167 nM.

In turn, `Cn1cnnc1-c1cccc(NC(=O)c2cc(N3CCC(N)C3)ccn2)c1` (centres unmarked) [Example 33, 4-(3-aminopyrrolidin-1-yl)-N-(3-(4-methyl-4H-1,2,4-triazol-3-yl)phenyl)picolinamide] displayed an IC50 of 3480 nM.

Compound `C[C@@H](c1ccccc1)n1cnnc1-c1cccc(NC(=O)c2cccc(-n3cnc(C4CC4)c3)c2)n1` [Example 217, (S)-3-(4-cyclopropyl-1H-imidazol-1-yl)-N-(6-(4-(1-phenylethyl)-4H-1,2,4-triazol-3-yl)pyridin-2-yl)benzamide] displayed an IC50 of 14 nM.

Compound `O=C(Nc1cccc(-c2nncn2C2CCC2)c1)c1cc(-c2ccc(C3CC3)nc2)ccn1` [Example 221, N-(3-(4-cyclobutyl-4H-1,2,4-triazol-3-yl)phenyl)-6-cyclopropyl-3,4′-bipyridine-2′-carboxamide] showed an IC50 of 31 nM.

In the case of `Cc1cc(C(=O)Nc2cccc(-c3nncn3C3CC3)n2)cc(-n2cnc(C3CC3)c2)c1` [Example 209, 3-(4-cyclopropyl-1H-imidazol-1-yl)-N-(6-(4-cyclopropyl-4H-1,2,4-triazol-3-yl)pyridin-2-yl)-5-methylbenzamide], the IC50 was found to be 7 nM.

Turning to `O=C(Nc1cccc(-c2nncn2C2CCCC2)c1)c1cc(-c2cccnc2)ccn1` [Example 40, N-(3-(4-cyclopentyl-4H-1,2,4-triazol-3-yl)phenyl)-3,4′-bipyridine-2′-carboxamide], the IC50 is 75 nM. Compared with the last compound, the IC50 is about 11-fold higher.

In the case of `CC(C)n1cnnc1-c1cccc(NC(=O)c2cc(-c3ccc(C4CC4)nc3)ccn2)n1` [Example 176, 6-cyclopropyl-N-(6-(4-isopropyl-4H-1,2,4-triazol-3-yl)pyridin-2-yl)-3,4′-bipyridine-2′-carboxamide], it took 13 nM to reach half-maximal inhibition (IC50).

In turn, `O=C(Nc1cccc(-c2nncn2C2CC2)c1)c1cc(-c2cccnc2)ccn1` [Example 15, N-(3-(4-cyclopropyl-4H-1,2,4-triazol-3-yl)phenyl)-3,4′-bipyridine-2′-carboxamide] yielded an IC50 of 11 nM. This IC50 and that of the compound before are within 1.5-fold of each other.

Take `NC(=O)c1cncc(-c2ccnc(C(=O)Nc3cccc(-c4nncn4C4CC4)c3)c2)c1` [Example 64, N2′-(3-(4-cyclopropyl-4H-1,2,4-triazol-3-yl)phenyl)-3,4′-bipyridine-2′,5-dicarboxamide]: the IC50 worked out at 17 nM.

`CCNc1ccc(-c2ccnc(C(=O)Nc3cccc(-c4nncn4C4CC4)c3)c2)cn1` [Example 119, N-(3-(4-cyclopropyl-4H-1,2,4-triazo1-3-yl)phenyl)-6-(ethylamino)-3,4′-bipyridine-2′-carboxamide] gave an IC50 of 9 nM.

`Cc1ccc(-n2cnc(C3CC3)c2)cc1C(=O)Nc1cccc(-c2nncn2C2CC2)n1` [Example 197, 5-(4-cyclopropyl-1H-imidazol-1-yl)-N-(6-(4-cyclopropyl-4H-1,2,4-triazol-3-yl)pyridin-2-yl)-2-methylbenzamide] registered an IC50 of 47 nM.

The compound `Cc1cc(-c2ccnc(C(=O)Nc3cccc(-c4nncn4C4CC4)c3)c2)cnc1F` [Example 48, N-(3-(4-cyclopropyl-4H-1,2,4-triazol-3-yl)phenyl)-6-fluoro-5-methyl-3,4′-bipyridine-2′-carboxamide] yielded an IC50 of 37 nM.

On to `O=C(Nc1cccc(-c2nncn2C2CC2)c1)c1cc(-n2cnc3ncccc32)ccn1` [Example 81, N-(3-(4-cyclopropyl-4H-1,2,4-triazol-3-yl)phenyl)-4-(1H-imidazo[4,5-b]pyridin-1-yl)picolinamide], for which half-maximal inhibition (IC50) was put at 16 nM.

With `O=C(Nc1cccc(-c2nncn2C2CC2)n1)c1cccc(-c2cccnc2)c1` [Example 130, N-(6-(4-cyclopropyl-4H-1,2,4-triazol-3-yl)pyridin-2-yl)-3-(pyridin-3-yl)benzamide], it took 12 nM to reach half-maximal inhibition (IC50). This IC50 and that of the compound before are within 1.5-fold of each other.

`COc1ccc(-c2ccc(C3CC3)nc2)cc1C(=O)Nc1cccc(-c2nncn2C2CC2)c1` [Example 271, N-(3-(4-cyclopropyl-4H-1,2,4-triazol-3-yl)phenyl)-5-(6-cyclopropylpyridin-3-yl)-2-methoxybenzamide] displayed a half-maximal inhibitory concentration (IC50) of 24 nM. This IC50 is about 2-fold higher than that of the compound before.

Regarding `O=C(Nc1cccc(-c2nncn2C2CC2)c1)c1cc(-c2ccc(C3CC3)cc2)ccn1` [Example 129, N-(3-(4-cyclopropyl-4H-1,2,4-triazol-3-yl)phenyl)-4-(4-cyclopropylphenyl)picolinamide], half-maximal inhibition (IC50) was put at 22 nM. This IC50 and that of the compound before are within 1.5-fold of each other.

`CC(C)S(=O)(=O)c1ccc(-c2ccnc(C(=O)Nc3cccc(-c4nncn4C4CC4)c3)c2)cc1` [Example 118, N-(3-(4-cyclopropyl-4H-1,2,4-triazol-3-yl)phenyl)-4-(4-(isopropylsulfonyl)phenyl)picolinamide] had an IC50 of 9 nM.

Consider `O=C(Nc1cccc(-c2nncn2C2CC2)n1)c1cc(-n2cnc(-c3ccccc3)c2)ccn1` [Example 113, N-(6-(4-cyclopropyl-4H-1,2,4-triazol-3-yl)pyridin-2-yl)-4-(4-phenyl-1H-imidazol-1-yl)picolinamide], for which the IC50 was 10 nM.

In turn, `O=C(Nc1cccc(-c2nncn2C2CC2)n1)c1cc(-c2ccc(C3CC3)nc2)c2ccccc2n1` [Example 225, N-(6-(4-cyclopropyl-4H-1,2,4-triazol-3-yl)pyridin-2-yl)-4-(6-cyclopropylpyridin-3-yl)quinoline-2-carboxamide] displayed an IC50 of 103 nM. Against the preceding compound, the IC50 is about 10-fold higher.

In turn, `O=C(Nc1cccc(-c2nncn2C2CCOCC2)c1)c1cc(-c2cccnc2)ccn1` [Example 26, N-(3-(4-(tetrahydro-2H-pyran-4-yl)-4H-1,2,4-triazol-3-yl)phenyl)-3,4′-bipyridine-2′-carboxamide] yielded an IC50 of 1970 nM.

In the case of `O=C(Nc1cccc(-c2nncn2C2CCC2)c1)c1cc(-c2cccnc2)ccn1` [Example 39, N-(3-(4-cyclobutyl-4H-1,2,4-triazol-3-yl)phenyl)-3,4′-bipyridine-2′-carboxamide], the midpoint of inhibition, the IC50, lay at 63 nM. This IC50 lies about 31-fold lower than the previous one.

As to `CN1CCC(n2cnnc2-c2cccc(NC(=O)c3cc(-c4ccc(C5CC5)nc4)ccn3)n2)CC1` [Example 241, 6-cyclopropyl-N-(6-(4-(1-methylpiperidin-4-yl)-4H-1,2,4-triazol-3-yl)pyridin-2-yl)-3,4′-bipyridine-2′-carboxamide], the IC50 is 616 nM. This IC50 lies about 9.8-fold higher than the previous one.

`O=C(Nc1cccc(-c2nncn2C2CC2)c1F)c1cc(-c2ccc(C3CC3)nc2)ccn1` [Example 155, 6-cyclopropyl-N-(3-(4-cyclopropyl-4H-1,2,4-triazol-3-yl)-2-fluorophenyl)-3,4′-bipyridine-2′-carboxamide] had an IC50 of 10 nM.
